According to patent US5508456A, “9-cis tritium-labeled retinoids and intermediates, methods for their synthesis and methods for their use in discovering retinoid X receptor ligands” (Ligand Pharmaceuticals Incorporated, priority 1994, dated 1996):
“Also recorded” adds a separate entry of the source.

Key:
[1] = test system: RXRs; test: Binding to RXRs (summary)
[2] = test system: RARs and RXRs; test: Binding to RARs and RXRs (summary over all six receptors); conditions: RARα,β,γ and RXRα,β,γ
[3] = test system: RARs and RXRs; test: Binding to and modulating gene expression via RARs and RXRs; conditions: labeled retinoid
[4] = test system: RARs and RXRs; conditions: Heyman et al., Cell, 68:397 (1992); cited from earlier work

SMILES | binding to RXRs, in words [1] | binding to / activity on RARs and RXRs, in words [2] | binding to / activity on RARs and RXRs, in words ([2]; listed as all-trans retinoic acid (ATRA)) | binding with, and modulating gene expression from, both RARs and RXRs, in words [3] | binding to / activity on RARs and RXRs, in words ([2]; listed as 9-cis retinoic acid) | binding to and modulating gene expression via the RARs and RXRs, in words [4]
CC1=C(/C=C/C(C)=C/C=C/C(C)=C/C(=O)O)C(C)(C)CCC1 [ATRA, all-trans retinoic acid] | does not bind to RXRs | only binds to the RARs | only active on RARα,β,γ | – | – | –
[3H]C(/C=C(C)\C=C\C1=C(C)CCCC1(C)C)=C\C(C)=C\C(=O)O [monotritium-labeled 9-cis RA, (2E,4E,6Z,8E)-5-[^3 H]-3,7-Dimethyl-9-(2,6,6-trimethylcyclohexen-1-yl)nona-2,4,6,8-tetraenoic acid] | – | binds to all the known RARs and RXRs with approximately equal nanomolar affinities | – | capable of binding with, and modulating gene expression from, both RARs and RXRs | – | –
CC1=C(/C=C/C(C)=C\C=C\C(C)=C\C(=O)O)C(C)(C)CCC1 [9-cis RA, (2E,4E,6Z,8E)-3.7-Dimethyl-9-(2,6,6-trimethylcyclohexen-1-yl)nona-2.4.6.8-tetraenoic acid] | – | active on all six known retinoid receptors | – | – | effectively binds to all six receptors; also recorded: binds to the RARs and RXRs with high affinity in a saturable and specific manner | capable of binding to and modulating gene expression via the RARs and RXRs
